By IC50 is commonly meant the concentration that gives 50% inhibition. As usually defined, the inhibition is the share of the control response that was lost under treatment.

SMILES strings stand for the structures.

One experiment has as its target ROCK-II (Homo sapiens, UniProt O75116). Nature of the experiment: ROCK-II biochemical assay. The note with it: ROCK-II IC50, as given in text.
The test system of experiment [1] is myosin light chain bisphosphorylation (ppMLC). Nature of the experiment: cell-based myosin light chain bisphosphorylation. The note with it: read-out: ppMLC cell-based IC50.
A further experiment addresses Akt3 (Homo sapiens, UniProt Q9Y243). The experiment can be described thus: Ambit kinase screen, single-point, Akt3. It is filed as binding. The note with it: read-out: percentage inhibition Akt3.
Another experiment concerns the target Clk1 (Homo sapiens, UniProt P49759). Nature of the experiment: Ambit kinase screen, single-point, Clk1. The experiment is classed as binding. The note with it: read-out: percentage inhibition Clk1.
Another experiment has as its target Clk2 (Homo sapiens, UniProt P49760). The experiment can be described thus: Ambit kinase screen, single-point, Clk2. The experiment is classed as binding. The note with it: read-out: percentage inhibition Clk2.
For the next experiment, the target named is Clk4 (Homo sapiens, UniProt Q9HAZ1). Nature of the experiment: Ambit kinase screen, single-point, Clk4. The experiment is classed as binding. The note with it: read-out: percentage inhibition Clk4.
Clk4, sequence (Q9HAZ1 whole entry): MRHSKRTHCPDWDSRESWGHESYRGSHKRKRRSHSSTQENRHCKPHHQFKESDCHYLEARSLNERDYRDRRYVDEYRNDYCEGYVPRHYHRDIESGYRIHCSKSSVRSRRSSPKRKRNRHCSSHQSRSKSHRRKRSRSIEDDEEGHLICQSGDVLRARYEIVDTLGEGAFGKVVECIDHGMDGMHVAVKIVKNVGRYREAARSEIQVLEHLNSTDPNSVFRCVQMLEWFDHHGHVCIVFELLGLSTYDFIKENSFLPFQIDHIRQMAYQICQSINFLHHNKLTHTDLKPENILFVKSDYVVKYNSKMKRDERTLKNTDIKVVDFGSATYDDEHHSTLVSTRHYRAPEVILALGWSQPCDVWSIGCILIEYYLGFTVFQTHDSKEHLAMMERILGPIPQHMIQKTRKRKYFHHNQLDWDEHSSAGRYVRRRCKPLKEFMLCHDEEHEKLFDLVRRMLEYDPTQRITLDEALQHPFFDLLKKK
The next experiment concerns the target T1, Lats2 (Homo sapiens, UniProt Q9NRM7).
T1 sequence (Q9NRM7 1-1088): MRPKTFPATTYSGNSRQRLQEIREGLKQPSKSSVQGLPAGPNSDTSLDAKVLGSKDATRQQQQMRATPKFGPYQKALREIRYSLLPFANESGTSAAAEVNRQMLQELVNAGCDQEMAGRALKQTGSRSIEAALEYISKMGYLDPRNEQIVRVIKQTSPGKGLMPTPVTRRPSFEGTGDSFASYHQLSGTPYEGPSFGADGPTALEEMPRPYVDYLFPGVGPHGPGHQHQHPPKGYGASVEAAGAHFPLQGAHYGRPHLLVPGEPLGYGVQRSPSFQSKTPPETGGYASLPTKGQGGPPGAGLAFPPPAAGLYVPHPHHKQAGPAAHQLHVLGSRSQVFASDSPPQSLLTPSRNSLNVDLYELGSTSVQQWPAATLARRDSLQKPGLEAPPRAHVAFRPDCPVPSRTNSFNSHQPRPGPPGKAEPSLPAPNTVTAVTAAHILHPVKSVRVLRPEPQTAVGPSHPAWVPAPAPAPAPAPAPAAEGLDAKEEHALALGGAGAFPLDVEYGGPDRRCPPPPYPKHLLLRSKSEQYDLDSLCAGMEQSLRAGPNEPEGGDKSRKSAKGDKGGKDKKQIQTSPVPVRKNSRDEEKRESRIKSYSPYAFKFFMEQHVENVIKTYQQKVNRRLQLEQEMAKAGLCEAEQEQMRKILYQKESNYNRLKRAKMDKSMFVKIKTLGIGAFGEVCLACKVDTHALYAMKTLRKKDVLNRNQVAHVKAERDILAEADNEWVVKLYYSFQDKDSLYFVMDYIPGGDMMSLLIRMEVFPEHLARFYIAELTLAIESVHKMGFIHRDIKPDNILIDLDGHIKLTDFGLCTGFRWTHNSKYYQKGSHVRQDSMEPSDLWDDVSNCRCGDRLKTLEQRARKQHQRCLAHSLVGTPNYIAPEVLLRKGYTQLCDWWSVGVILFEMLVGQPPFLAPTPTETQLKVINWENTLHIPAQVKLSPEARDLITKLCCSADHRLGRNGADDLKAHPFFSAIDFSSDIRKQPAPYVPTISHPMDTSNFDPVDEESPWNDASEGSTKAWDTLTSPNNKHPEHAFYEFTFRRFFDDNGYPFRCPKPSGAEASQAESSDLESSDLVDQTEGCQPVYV
The experiment can be described thus: Ambit kinase screen, single-point, Lats2. The note with it: read-out: percentage inhibition Lats2. The experiment is classed as binding.

The next experiment deals with 353 kinases. Nature of the experiment: profiling versus 353 kinases. The note with it: 3 µM. It is filed as binding.
The target in a further experiment is T2, adrenergic receptor α1a (Homo sapiens, UniProt P35348).
T2 sequence (P35348 1-466): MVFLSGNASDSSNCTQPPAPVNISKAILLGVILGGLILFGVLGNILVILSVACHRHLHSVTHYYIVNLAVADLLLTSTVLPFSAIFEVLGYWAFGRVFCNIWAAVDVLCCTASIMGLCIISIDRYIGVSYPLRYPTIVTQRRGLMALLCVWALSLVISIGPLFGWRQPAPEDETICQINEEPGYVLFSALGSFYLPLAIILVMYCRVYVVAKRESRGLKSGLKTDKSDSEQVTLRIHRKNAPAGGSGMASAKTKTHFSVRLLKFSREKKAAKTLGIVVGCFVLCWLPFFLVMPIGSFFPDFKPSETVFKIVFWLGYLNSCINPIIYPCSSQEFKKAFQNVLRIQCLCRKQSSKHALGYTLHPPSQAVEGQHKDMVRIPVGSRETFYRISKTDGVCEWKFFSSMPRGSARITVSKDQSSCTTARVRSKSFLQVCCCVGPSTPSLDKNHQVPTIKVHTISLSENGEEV
Nature of the experiment: nonkinase panel, adrenergic receptor α1a. It is filed as binding.

For another experiment, the target named is T3, adrenergic receptor α1b (Homo sapiens, UniProt P35368).
T3 sequence (P35368 1-520): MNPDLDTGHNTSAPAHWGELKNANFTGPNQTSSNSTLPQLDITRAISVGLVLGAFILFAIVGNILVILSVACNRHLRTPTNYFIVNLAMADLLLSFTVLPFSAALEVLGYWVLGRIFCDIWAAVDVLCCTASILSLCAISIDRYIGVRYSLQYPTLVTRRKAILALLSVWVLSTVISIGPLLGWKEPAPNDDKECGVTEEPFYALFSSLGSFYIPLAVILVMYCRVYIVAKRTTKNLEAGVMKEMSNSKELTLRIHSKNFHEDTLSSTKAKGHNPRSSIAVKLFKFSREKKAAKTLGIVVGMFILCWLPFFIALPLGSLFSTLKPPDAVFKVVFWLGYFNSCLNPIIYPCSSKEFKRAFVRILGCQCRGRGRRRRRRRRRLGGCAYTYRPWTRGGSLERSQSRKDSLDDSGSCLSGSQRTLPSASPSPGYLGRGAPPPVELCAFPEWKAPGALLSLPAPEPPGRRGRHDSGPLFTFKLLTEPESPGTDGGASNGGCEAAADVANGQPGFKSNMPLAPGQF
Nature of the experiment: nonkinase panel, adrenergic receptor α1b. It is filed as binding.

The target of the next experiment is T4, adrenergic receptor α2a (Homo sapiens, UniProt P08913).
T4 sequence (P08913 1-465): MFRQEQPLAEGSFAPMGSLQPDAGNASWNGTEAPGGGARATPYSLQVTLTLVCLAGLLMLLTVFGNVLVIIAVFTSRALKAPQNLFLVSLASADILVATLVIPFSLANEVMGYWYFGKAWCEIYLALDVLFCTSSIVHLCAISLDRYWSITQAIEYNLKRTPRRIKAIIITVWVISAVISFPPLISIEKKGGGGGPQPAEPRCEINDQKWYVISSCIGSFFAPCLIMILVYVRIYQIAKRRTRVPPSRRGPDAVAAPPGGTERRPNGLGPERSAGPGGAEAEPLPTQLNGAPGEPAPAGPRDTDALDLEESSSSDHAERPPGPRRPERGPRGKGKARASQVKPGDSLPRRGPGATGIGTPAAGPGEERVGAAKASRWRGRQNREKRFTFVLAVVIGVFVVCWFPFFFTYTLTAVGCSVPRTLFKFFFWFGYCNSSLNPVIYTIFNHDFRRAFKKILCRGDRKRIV
The experiment can be described thus: nonkinase panel, adrenergic receptor α2a. The experiment is classed as binding.

The subject of experiment [2] is p-MLC in trabecular meshwork tissue. Nature of the experiment: Western blot analysis of p-MLC in TM tissue from perfused porcine eyes. The note with it: 25 µM, perfused at 15 mmHg for 5 h.
For experiment [3], the system named is aqueous humor outflow facility from the trabecular meshwork. The experiment can be described thus: ex vivo aqueous humor outflow facility in perfused enucleated porcine eyes. The note with it: 25 µM continuous exposure, 2–5 h time points, p < 0.01, porcine eyes ex vivo.

Clk2, sequence (P49760 whole entry): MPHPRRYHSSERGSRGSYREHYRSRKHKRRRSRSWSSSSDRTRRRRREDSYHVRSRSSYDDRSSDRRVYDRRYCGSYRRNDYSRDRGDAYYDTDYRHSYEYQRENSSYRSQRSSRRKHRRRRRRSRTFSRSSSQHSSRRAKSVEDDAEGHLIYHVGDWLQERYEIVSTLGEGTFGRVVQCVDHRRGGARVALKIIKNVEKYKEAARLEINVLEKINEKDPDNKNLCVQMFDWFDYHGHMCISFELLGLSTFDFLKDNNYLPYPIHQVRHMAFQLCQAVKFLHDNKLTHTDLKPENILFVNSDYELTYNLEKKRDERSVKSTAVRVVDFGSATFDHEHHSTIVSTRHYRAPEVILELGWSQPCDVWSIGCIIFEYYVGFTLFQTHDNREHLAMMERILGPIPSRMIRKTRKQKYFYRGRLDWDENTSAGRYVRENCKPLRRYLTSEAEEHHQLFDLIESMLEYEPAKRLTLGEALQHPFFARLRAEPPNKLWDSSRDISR
ROCK-II, sequence (O75116 whole entry, species assumed): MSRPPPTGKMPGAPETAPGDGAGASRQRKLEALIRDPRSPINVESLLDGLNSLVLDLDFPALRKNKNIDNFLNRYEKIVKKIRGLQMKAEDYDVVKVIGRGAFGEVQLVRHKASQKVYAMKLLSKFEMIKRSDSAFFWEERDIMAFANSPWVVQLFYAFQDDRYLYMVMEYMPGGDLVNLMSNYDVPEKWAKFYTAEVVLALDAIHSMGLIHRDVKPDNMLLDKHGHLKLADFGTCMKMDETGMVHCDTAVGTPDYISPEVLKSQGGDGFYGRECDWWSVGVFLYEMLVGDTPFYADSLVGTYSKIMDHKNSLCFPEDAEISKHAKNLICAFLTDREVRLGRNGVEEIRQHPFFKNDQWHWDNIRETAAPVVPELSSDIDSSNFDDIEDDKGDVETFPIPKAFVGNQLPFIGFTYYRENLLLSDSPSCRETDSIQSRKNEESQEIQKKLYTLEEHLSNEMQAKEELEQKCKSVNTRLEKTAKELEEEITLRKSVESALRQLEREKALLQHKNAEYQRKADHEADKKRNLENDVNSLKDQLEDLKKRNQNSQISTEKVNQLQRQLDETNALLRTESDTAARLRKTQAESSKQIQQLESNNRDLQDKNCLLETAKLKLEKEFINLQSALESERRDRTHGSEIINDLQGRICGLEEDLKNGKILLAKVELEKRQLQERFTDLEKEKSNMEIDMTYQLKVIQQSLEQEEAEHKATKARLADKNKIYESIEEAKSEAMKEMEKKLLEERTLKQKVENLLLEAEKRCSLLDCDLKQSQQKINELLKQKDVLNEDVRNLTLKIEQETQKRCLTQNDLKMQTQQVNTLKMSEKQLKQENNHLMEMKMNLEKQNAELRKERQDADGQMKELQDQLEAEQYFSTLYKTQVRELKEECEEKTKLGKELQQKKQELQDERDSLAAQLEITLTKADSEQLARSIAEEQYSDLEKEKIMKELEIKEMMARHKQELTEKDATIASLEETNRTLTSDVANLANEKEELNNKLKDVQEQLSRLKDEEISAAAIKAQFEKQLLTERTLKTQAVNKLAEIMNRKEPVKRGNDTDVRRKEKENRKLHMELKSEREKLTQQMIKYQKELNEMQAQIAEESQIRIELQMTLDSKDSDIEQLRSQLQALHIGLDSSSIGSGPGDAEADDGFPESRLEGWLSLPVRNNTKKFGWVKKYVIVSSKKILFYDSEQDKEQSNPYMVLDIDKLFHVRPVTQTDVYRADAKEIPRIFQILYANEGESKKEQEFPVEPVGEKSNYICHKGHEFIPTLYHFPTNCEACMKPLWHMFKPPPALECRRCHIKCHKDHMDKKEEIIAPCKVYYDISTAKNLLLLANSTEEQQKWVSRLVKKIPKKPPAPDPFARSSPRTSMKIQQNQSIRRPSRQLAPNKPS
Akt3, sequence (Q9Y243 whole entry): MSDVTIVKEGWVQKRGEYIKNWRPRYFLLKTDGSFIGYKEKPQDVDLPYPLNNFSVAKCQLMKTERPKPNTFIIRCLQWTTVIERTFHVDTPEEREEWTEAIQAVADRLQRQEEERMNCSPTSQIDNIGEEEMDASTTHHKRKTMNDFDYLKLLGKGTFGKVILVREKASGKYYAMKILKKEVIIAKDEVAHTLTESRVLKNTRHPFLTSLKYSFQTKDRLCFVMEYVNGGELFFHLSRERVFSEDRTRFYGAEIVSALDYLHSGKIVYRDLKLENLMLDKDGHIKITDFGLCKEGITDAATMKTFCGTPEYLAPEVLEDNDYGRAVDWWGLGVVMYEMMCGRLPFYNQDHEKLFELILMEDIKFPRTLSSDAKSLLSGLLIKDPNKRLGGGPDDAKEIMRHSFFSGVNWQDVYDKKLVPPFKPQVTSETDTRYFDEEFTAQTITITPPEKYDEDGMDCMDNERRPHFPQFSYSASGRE
Clk1, sequence (P49759 whole entry): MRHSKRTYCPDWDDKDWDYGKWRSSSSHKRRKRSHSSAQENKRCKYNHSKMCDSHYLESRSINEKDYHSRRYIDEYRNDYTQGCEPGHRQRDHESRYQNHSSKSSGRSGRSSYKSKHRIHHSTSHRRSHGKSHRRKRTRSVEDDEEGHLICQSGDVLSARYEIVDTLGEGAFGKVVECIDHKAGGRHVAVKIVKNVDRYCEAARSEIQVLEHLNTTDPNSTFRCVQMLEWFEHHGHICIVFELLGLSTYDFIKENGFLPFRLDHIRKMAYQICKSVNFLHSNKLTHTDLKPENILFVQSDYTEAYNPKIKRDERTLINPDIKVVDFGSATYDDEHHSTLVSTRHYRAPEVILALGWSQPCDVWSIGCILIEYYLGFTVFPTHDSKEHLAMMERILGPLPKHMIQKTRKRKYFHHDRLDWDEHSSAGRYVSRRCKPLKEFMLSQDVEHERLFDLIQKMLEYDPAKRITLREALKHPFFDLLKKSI

For `CN(C)CCOc1cc(-c2cn[nH]c2)ccc1NC(=O)C1COc2ccccc2O1` (centres unmarked) [Compound 5], the IC50 is approximately 3 nM against ROCK-II; approximately 3 nM in experiment [1]; approximately 1000 nM against adrenergic receptor α1a; approximately 1000 nM at adrenergic receptor α1b; approximately 1000 nM at adrenergic receptor α2a. For the same compound, the inhibition at 3 µM at Akt3, at Clk1, on Clk2, on Clk4 and on Lats2 was more than 50% each time. This compound also returned an off-target hit rate in the experiment on 353 kinases (353 kinases, hits = inhibition greater than 50%) of 1.4%. In addition, the “inhibition of all other kinases of the panel” value with 353 kinases (single-point, no or very low inhibition) was less than 10%. In [2], the “inhibition of Rho kinase in the TM tissue (p-MLC Western blot)” value is recorded as “greater than 90%”. Further, the “increase of aqueous humor outflow facility” value in experiment [3] is 70–80%.

These data come from PMC3708311 (Journal of medicinal chemistry, 2008).
